We go through 9 compounds from patent EP1503771B1, “SEDATIVE MATERIALS AND TREATMENTS” (University of Strathclyde, priority 2002, dated 2003).

For test [1], the system named is male Swiss mice. The experiment in a line: spontaneous locomotor activity (Opto-Varimex apparatus). Type of test: in vivo. The following applies: for Locomotor Total activity: ambulatory locomotor activity; for Locomotor Activity Total / Locomotor Activity ambulatory: 4 mg/kg, decrement relative to vehicle values. On the procedure:
(§1) In all in vivo tests male Swiss mice of 28-30 g were used. The animals were injected i.p. with vehicle, or a solution of the drug, or fraction, 20 min before the assay. The assays were performed in mice i.p. injected with an amount of each fraction equivalent to that obtained from 1 g of dry Valeriana wallichii powder (see Table 3), 20 min before the test. In the case of the remaining aqueous solution (see Figure 2) it was injected at the maximum tolerated dose which was equivalent to that obtained from only 12 mg of dry Valeriana wallichii powder. This low dosage explains the absence of activity recorded in Table 4.
(§2) The following tests were used: spontaneous ambulatory activity counts in an Opto-Varimex apparatus that optically detects and measures locomotor activity; the Hole-board, a well-known test to assay for the sedative behavior (6); and the horizontal wire test to detect myorelaxation as described in detail in the literature (7).
(§3) Mean ±SEM of locomotor activity registered during 5 min session in an Opto-Varimex apparatus and performance of mice in the holeboard test. Wire test was performed after two trials and was registered the number of animals grasped the wire for 3 seconds. Vehicle or 6-methylapigenin were ip administered 20 min before tests. No significant differences were observed using the Student's t test at p>0.05. Table 9 - Anxiolytic effect of 6-methylapigenin measured in the plus-maze test

The subject of test [2] is BDZ-bs (benzodiazepine binding site in GABAA brain receptor). The experiment in a line: BDZ-bs binding assay ([3H]-FNZ binding to cerebral cortical membranes). Also noted: species or system rat. On the procedure:
In vitro binding assays were carried out with various receptors as well as in vivo tests for sedative activity on the various fractions A-K recovered in Example 1 using the known procedures described in detail in the literature for the following receptors: BDZ-bs (benzodiazepine binding site in GABAA brain receptor) (1); 5-hydroxytriptamine-type 1A (5HT1A) (2); 5HT2 (3); AMPA glutamatergic (4); adenosine 1 (5) . In vivo sedation activity was measured by the Hole-board test (6).
The presence of BDZ-bs ligands in the fractions obtained at the end of the preparative fractionation scheme described in Figure 2 was checked by the BDZ-bs binding assay as described in Example 2.
No BDZ-bs ligands were found in the eluates obtained with 20 %, 30 % and 80 % ACN, but they were present in those obtained with 40 % and 50 % ACN. The BDZ-bs ligands distribution obtained is shown in Figure 3 in which the percentage of binding inhibition of [^3H]-FNZ to rat cerebral cortical membranes (averages of duplicated measurements), is shown for 0.05 mL aliquots of the indicated fractions. (Note: Fractions 1-5, 6-10 and 28-32 were collected in bulk; 40 % and 50 % eluates were collected as separate 100 mL fractions. The arrows inside the graph indicate the pools made). […]

Test [3] deals with male Swiss mice. The experiment in a line: horizontal wire test (myorelaxation). In kind it is in vivo. On the procedure:
as §1, §2, §3

The test system of test [4] is mice. The test is described as follows: elevated plus-maze test (anxiolysis). In kind it is in vivo. The following applies: for % open arm entries / % time spent in open arms / arm entries: mice, mean ±SEM. From the text: Anti-anxiety as discussed in the present application is based on the fear that mice have for open spaces i.e. the elevated plus-maze assay.
Test [5] has as its system male Swiss mice. The experiment in a line: Hole-board test (sedation). Type of test: in vivo. The following applies: for Hole-board test N° of Head- dips / Hole-board test N° of rearings / Hole-board test Time head dipping: mice.
For test [6], the system named is mice. The experiment in a line: sodium thiopental-induced sleeping time. In kind it is in vivo. Here is the method:
The effect of the active components in fraction H of Table 3 (ACN 50%, 23-27) and that of the aqueous remaining solution (Table 3) were tested in mice by i.p. administration. The doses were 2 mg per mouse for fraction H and 5 mg per mouse for the aqueous remaining solution fraction B. A small amount of conventional anesthetic (30 mg/kg of thiopental sodium - Biochemie, GmbH, Kundl, Austria) was used to induce a slight sleeping condition in the mice which were monitored to detect any possible enhancement of the sleeping condition by the previous injection of the novel compounds.
Median (interquartile range) of sleeping time of mice given a sodium thiopental i.p. administration (30 mg/kg) 20 min after an i.p. injection of vehicle or 6-methylapigenin. The sleeping time was measured as the time spent between disappearance and reappearance of righting reflex. Table 8 - Effect in different behavioral tests of 6-methylapigenin (sedation tests)

Test [7] relates to BDZ-bs. The test is described as follows: GABA-shift of [3H]-FNZ displacement curves. Type of test: binding. The following applies: for GABA-shift: [3H]-FNZ binding to cortical brain membranes in the presence or absence of 100 µM GABA, n= 3.
Setting [8] is: 10 mg/kg ip 20 min before test, 5 min session, mean ±SEM.
Where [9] appears, read: 0.3 mg/kg ip 20 min before test.
Where [10] appears, read: 10 mg/kg ip 20 min before test, mean ±SEM.
Setting [11] is: mice, 1 mg/kg i.p. 20 min before sodium thiopental 30mg/kg i.p. (Table 20).
The mark [12] stands for this setting: 4 mg/kg, decrement relative to vehicle values.
Setting [13] is: mice, 4 mg/kg i.p. 20 min before sodium thiopental 30 mg/kg i.p. (Table 10).
[14] abbreviates: mice, 9 mg/kg i.p. 20 min before sodium thiopental 30 mg/kg i.p. (Table 10).
Setting [15] is: mice, hesperidin 2 mg/kg i.p. 20 min before sodium thiopental 30mg/kg i.p. (Table 20).

The structures appear in SMILES notation. Marks after values point to notes of the source that are not given here.

On to `Cc1c(O)cc2oc(-c3ccc(O)cc3)cc(=O)c2c1O` (single isomer, unassigned) [6-methylapigenin], for which the “Locomotor Total activity” value in test [1] (0.3 mg/kg ip 20 min before test, 5 min session, mean ±SEM) is 410±36. For the same compound, in test [1] (1 mg/kg ip 20 min before test, 5 min session, mean ±SEM), the “Locomotor Total activity” value is reported as 463±64. Also, in test [1] (setting [8]), the Ambulatory locomotor activity is on record as 395±43 and the “Total Locomotor Activity” value was 552±55. In addition, the “Scatchard analysis of saturation curves: type of interaction” value in test [2] ([3H] FNZ saturation curves, decline in apparent affinity without changes in Bmax) is given as “competitive interaction”. Also, in test [2] (n= 5 (ligand 1), n= 3 (ligand 2)), the affinity, expressed as Ki, was 500 ± 170 nM. The Wire in test [3] (10 mg/kg ip, number of animals that grasped the wire for 3 seconds) is recorded as 5/5. The “anxiolytic properties in the plus-maze assay” value in test [4] (dose of 1 mg/kg in mice) is on record as “clear anxiolytic properties”. Moreover, in test [4] (setting [9]), the “% open arm entries” value came to 48±4%, the “% time spent in open arms” value is listed as 42±4% and the arm entries is 17±2. In test [4] (1 mg/kg ip 20 min before test), the “% open arm entries” value is 60±6 %, the “% time spent in open arms” value was 58±5 % and the arm entries worked out at 14±2. Besides, in test [5] (setting [10]), the “Hole-board test N° of Head- dips” value was found to be 7±0.5, the “Hole-board test N° of rearings” value is listed as 28±3 and the “Hole-board test Time head dipping” value came out at 10±1. Also, in test [5] (up to 10 mg/kg in mice), the sedative effects result is listed as “does not have sedative effects”. Also, the “Sleeping time Median” value in test [6] (mice, 6-methylapigenin 1mg/kg (Table 18)) was 0 min. The “Sleeping time Median” value in test [6] (mice, 6-methylapigenin 1 mg/kg i.p. 20 min before sodium thiopental 30 mg/kg i.p. (Table 12)) was 0 min. The “Sleeping time (min) median values” in test [6] (mice, i.p., 1 mg/kg, 20 min before sodium thiopental 30 mg/kg i.p. (Table 7)) is given as 0 min. For the same compound, the “effect on sleeping time” value in test [6] (up to 1 mg/kg, mice receiving a sub-hypnotic dose of thiopental) is “does not affect the sleeping time”. Further, the GABA-shift in test [7] is reported as 1.6-2.0. The “behaviour at the BDZ-bs from GABA-shift” value in test [7] (presence or absence of 100 µM GABA) was “behaves as an agonist”.
Take `O=c1cc(-c2ccc(O)cc2)oc2cc(O)cc(O)c12` [Apigenin, reference compound]: the “Sleeping time Median” value in test [6] (setting [11]) stood at 0 min. The “Sleeping time Median (min)” value in test [6] (mice, 1 mg/kg i.p. 20 min before sodium thiopental 30mg/kg i.p. (Table 20), listed as apigenin) is “do not produce any sleeping time”.
Turning to `O=c1cc(-c2ccccc2)oc2cc(O)cc(O)c12` [Chrysin, reference compound], the “Sleeping time Median” value in test [6] (setting [11]) was determined as 0 min.
Turning to `COc1ccc([C@@H]2CC(=O)c3c(O)cc(O[C@@H]4O[C@H](CO[C@@H]5O[C@@H](C)[C@H](O)[C@@H](O)[C@H]5O)[C@@H](O)[C@H](O)[C@H]4O)cc3O2)cc1O` [Citrus hesperidin, hesperidin, reference compound], in test [1], the “Locomotor Activity Total” value is recorded as -31 percentage and the “Locomotor Activity ambulatory” value was -30 percentage. The compound further registered a Wire in test [3] (4 mg/kg) of 0 percentage. Further, in test [5] (setting [12]), the “Hole-board test N° of Head- dips” value is on record as -40 percentage, the “Hole-board test N° of rearings” value is -22 percentage and the “Hole-board test Time head dipping” value is listed as -44 percentage. In test [6] (estimated from Table 10, sleeping time in mice), the “activity relative to the natural isomer from valeriana” value was “approximately 60%”. Also, the “Sleeping time Median (s)” value in test [6] (setting [13]) is on record as 660* s. The “Sleeping time Median (s)” value in test [6] (setting [14]) is 1440** s.
Regarding `COc1ccc([C@@H]2CC(=O)c3c(O)cc(O[C@@H]4O[C@H](CO[C@@H]5O[C@@H](C)[C@H](O)[C@@H](O)[C@H]5O)[C@@H](O)[C@H](O)[C@H]4O)cc3O2)cc1O` [Hesperidin], in test [6] (mice, 4 mg/kg (Table 13)), the “Sleeping time Median” value worked out at 20 min. Further, in test [6] (setting [15]), the “Sleeping time Median” value is 3.5 min and the “Sleeping time Median (min)” value is on record as 3.5* min.
With `COc1ccc(-c2cc(=O)c3c(O)cc(O[C@@H]4O[C@H](CO[C@@H]5O[C@@H](C)[C@H](O)[C@@H](O)[C@H]5O)[C@@H](O)[C@H](O)[C@H]4O)cc3o2)cc1` [Linarin, 7-[[6-O-(6-deoxy-α-L-mannopyranosyl)-β-D-glucopyranosyl]oxy]-5-hydroxy-2-(4-methoxyphenyl)-4H-benzopyran-4-one], the “dose at which hypnotic activity is evident” value in test [6] (estimated from Table 16) is given as 7 mg/kg. Besides, the “Sleeping time Median” value is recorded as 0 min in test [6] (mice, 4 mg/kg i.p. 20 min before sodium thiopental 30 mg/kg i.p. (Table 16)) and 0 min in test [6] (mice, linarin 4 mg/kg i.p. 20 min before sodium thiopental 30 mg/kg i.p. (Table 17)). Also, the “Sleeping time Median (min)” value in test [6] (mice, 7 mg/kg i.p. 20 min before sodium thiopental 30 mg/kg i.p. (Table 16)) is 30** min; in test [6] (mice, 14 mg/kg i.p. 20 min before sodium thiopental 30 mg/kg i.p. (Table 16)), 30** min.
Consider `CC1=C2[C@H](/C=C(\C)C(=O)O)CC[C@@H](C)[C@H]2CC1` [Valerenic acid, reference compound], for which the “Sleeping time Median” value was 0 min in test [6] (mice, valerenic acid 5 mg/kg (Table 18)); 0 min in test [6] (mice, valerenic acid 5 mg/kg i.p. 20 min before sodium thiopental 30 mg/kg i.p. (Table 17)); 0 min in test [6] (mice, valerenic acid 15mg/kg i.p. 20 min before sodium thiopental 30 mg/kg i.p. (Table 17)).
Turning to `COc1ccc([C@@H]2CC(=O)c3c(O)cc(O[C@@H]4O[C@H](CO[C@@H]5O[C@@H](C)[C@H](O)[C@@H](O)[C@H]5O)[C@@H](O)[C@H](O)[C@H]4O)cc3O2)cc1O` [Valeriana hesperidin, Hesperetin 7-rhamnoglucoside; 4H-1-Benzopyran-4-one, 7-[[6-O-(6-deoxy-alpha-L-mannopyranosyl)-beta-D-glucopyranosyl]oxy]-2,3-dihydro-5-hydroxy-2-(3-hydroxy-4-methoxyphenyl)-, (S)-], in test [1], the “Locomotor Activity Total” value was -55** percentage. Further, in test [1], the “Locomotor Activity ambulatory” value is on record as -58** percentage. This compound had a Wire in test [3] (4 mg/kg) of 0 percentage. For the same compound, the “Hole-board test N° of Head- dips” value in test [5] (setting [12]) is listed as -74** percentage. For the same compound, the “Hole-board test N° of rearings” value in test [5] (setting [12]) is listed as -58** percentage. Moreover, in test [5] (setting [12]), the “Hole-board test Time head dipping” value was -81## percentage. Also, the “Sleeping time Median” value in test [6] (mice, 1 mg/kg i.p. 20 min before sodium thiopental 30 mg/kg i.p. (Table 10)) came to 0.583 min. In addition, the “Sleeping time Median (s)” value in test [6] (mice, 2 mg/kg i.p. 20 min before sodium thiopental 30 mg/kg i.p. (Table 10)) is recorded as 197* s; in test [6] (setting [13]), 1290** s; in test [6] (setting [14]), 1800** s; in test [6] (mice, hesperidin 2 mg/kg i.p. 20 min before sodium thiopental 30 mg/kg i.p. (Table 12)) it was 179* s; in test [6] (mice, i.p., Dose 3 (unit not given), 20 min before sodium thiopental 30 mg/kg i.p.) it was 500** s.
As for `CN1C(=O)CN=C(c2ccccc2)c2cc(Cl)ccc21` [diazepam, reference compound], the GABA-shift in test [7] is reported as 2.00 ± 0.10.
